From publication PMC8611036, “An integrated method for optimized identification of effective natural inhibitors against SARS-CoV-2 3CLpro” (Scientific Reports, 2021)

What was measured:
[1] = ref TCMSP database, cited from earlier work; for HBA: number of hydrogen-bond acceptors; for HBD: number of hydrogen-bond donors; for OB (%): oral bioavailability
[2] = tested on: SARS-CoV 3CLpro; type: biochemical; settings: activity class by pIC50 threshold 6
[3] = target: SARS-CoV-2 3CLpro (Severe acute respiratory syndrome coronavirus 2, UniProt P0DTD1); settings: SARS-CoV pIC50 multiplied by similarity index (SI), training set compounds
[4] = tested on: SARS-CoV 3CLpro; settings: SARS-CoV 3CLpro inhibitors (training set), ref: per compound, cited from earlier work; for pIC50: from literature IC50; for IC50: literature values

| SMILES | HBA [1] | HBD [1] | OB (%) [1] | BBB [1] | Caco-2 [1] | FASA- [1] | HL [1] | NRotB [1] | Inact.(<6)/Act.(>=6) [2] | SI*pIC50 [3] | pIC50 [4] | IC50 [4] |
| --- | --- | --- | --- | --- | --- | --- | --- | --- | --- | --- | --- | --- |
| O=c1cc(-c2ccc(O)c(O)c2)oc2cc(O)cc(O)c12 [MOL000006, luteolin] | 6 | 4 | 36.16% | -0.84 | 0.19 | 0.39 | 15.94 | 1 | – | – | – | – |
| O=c1cc(-c2ccc(O)cc2)oc2cc(O)cc(O)c12 [MOL000008, apigenin] | 5 | 3 | 23.06% | -0.61 | 0.43 | 0.41 | – | 1 | – | – | – | – |
| Cc1coc2c1C(=O)C(=O)c1c-2ccc2c1CCCC2(C)CO (stereo not drawn) [CMP131] | – | – | – | – | – | – | – | – | Inact. (Inact.(<6)) | 5.122 | 4.971 | 10.7 µM |
| O=C(Oc1ccc(S(=O)(=O)c2ccc(OC(=O)C(Cl)=C(Cl)Cl)cc2)cc1)C(Cl)=C(Cl)Cl [CMP137] | – | – | – | – | – | – | – | – | Act. (Act.(>=6)) | 6.198 | 6.046 | 0.9 µM |
| NC(=O)c1ccc2c(c1)C(=O)C(=O)N2c1cccc2ccccc12 [CMP118] | – | – | – | – | – | – | – | – | Act. (Act.(>=6)) | 6.584 | 6.4318 | 0.37 µM |
| O=C(Oc1cncc(Cl)c1)c1cc2ccccc2oc1=O [CMP162] | – | – | – | – | – | – | – | – | Act. (Act.(>=6)) | 7.11 | 6.959 | 0.11 µM |
| O=C(Oc1cncc(Cl)c1)c1ccco1 [CMP158] | – | – | – | – | – | – | – | – | Act. (Act.(>=6)) | 7.374 | 7.222 | 0.06 µM |
| CCCn1c(NCc2ccc(N3N=C(c4ccccc4)CC3c3ccccc3)cc2)nc2ccccc21 (stereo not drawn) [CMP115] | – | – | – | – | – | – | – | – | Inact. (Inact.(<6)) | 5.249 | 5.097 | 8 µM |
| O=C(Cc1cncc(Cl)c1)c1cccs1 [CMP181] | – | – | – | – | – | – | – | – | Act. (Act.(>=6)) | 6.453 | 6.301 | 0.5 µM |
| O=C(/C=C/c1ccccc1)Nc1ccccc1SC(=O)/C=C/c1ccccc1 [CMP108] | – | – | – | – | – | – | – | – | Inact. (Inact.(<6)) | 6.127 | 5.975 | 1.06 µM |
| O=C(Oc1cncc(Cl)c1)c1cc2ccccc2o1 [CMP169] | – | – | – | – | – | – | – | – | Act. (Act.(>=6)) | 6.921 | 6.77 | 0.17 µM |
| CC1CCN(S(=O)(=O)c2ccc3c(c2)C(=O)C(=O)N3)CC1 [CMP146] | – | – | – | – | – | – | – | – | Inact. (Inact.(<6)) | 6.08 | 5.928 | 1.18 µM |
| COc1cc(C=NNC(=O)C(=Cc2ccccc2)NC(=O)c2ccccc2)cc(OC)c1O [CMP123] | – | – | – | – | – | – | – | – | Inact. (Inact.(<6)) | 4.265 | 4.113 | 77.1 µM |
| CN(C)c1ccc(C(=O)N[C@@H](Cc2ccccc2)C(=O)Nc2ccc([N+](=O)[O-])cc2Cl)cc1 [CMP119] | – | – | – | – | – | – | – | – | Act. (Act.(>=6)) | 7.374 | 7.222 | 0.06 µM |
| CCOC(=O)/C=C/[C@H](C[C@@H]1CCNC1=O)NC(=O)[C@H](CC=C(C)C)CC(=O)[C@@H](NC(=O)c1cc(C)on1)C(C)C [CMP160] | – | – | – | – | – | – | – | – | Inact. (Inact.(<6)) | 4.307 | 4.1549 | 70 µM |
| COc1ccccc1/N=C/c1nc(-c2ccccc2)oc1OC(C)=O [CMP113] | – | – | – | – | – | – | – | – | Inact. (Inact.(<6)) | 5.6333 | 5.481 | 3.3 µM |

| SMILES | HBA [1] | HBD [1] | OB (%) [1] | BBB [1] | Caco-2 [1] | FASA- [1] | HL [1] | NRotB [1] | Inact.(<6)/Act.(>=6) [2] | SI*pIC50 [3] | pIC50 [4] | IC50 [4] |
| --- | --- | --- | --- | --- | --- | --- | --- | --- | --- | --- | --- | --- |
| CCOC(=O)/C=C/[C@H](C[C@@H]1CCNC1=O)NC(=O)[C@H](Cc1ccccc1)NC(=O)[C@@H](NC(=O)[C@H](CO)NC(=O)OC(C)(C)C)C(C)C [CMP180] | – | – | – | – | – | – | – | – | Inact. (Inact.(<6)) | 4.976 | 4.824 | 15 µM |
| CCn1c(NCc2ccc(N3N=C(c4ccccc4)CC3c3ccccc3)cc2)nc2ccccc21 (stereo not drawn) [CMP114] | – | – | – | – | – | – | – | – | Inact. (Inact.(<6)) | 5.228 | 5.076 | 8.4 µM |
| O=C(CSc1ncnc2c1sc1nc(N3CCOCC3)c3c(c12)CCCC3)NCc1ccco1 [CMP134] | – | – | – | – | – | – | – | – | Inact. (Inact.(<6)) | 4.194 | 4.0423 | 90.7 µM |
| CC(=O)c1ccccc1S(=O)(=O)c1ccccc1C(=O)O [CMP147] | – | – | – | – | – | – | – | – | Inact. (Inact.(<6)) | 4.948 | 4.796 | 16 µM |
| O=C(Cc1nccs1)c1nccs1 [CMP178] | – | – | – | – | – | – | – | – | Inact. (Inact.(<6)) | 4.55 | 4.398 | 40 µM |
| COc1ccc(N2C(=O)NC(=O)/C(=C\c3cc(Cl)c(OCc4cccc(C(=O)O)c4)c(Cl)c3)C2=O)cc1 [CMP103] | – | – | – | – | – | – | – | – | Inact. (Inact.(<6)) | 5.315 | 5.164 | 6.86 µM |
| Cc1oc(C(C)(C)C)cc1-c1cc(NS(=O)(=O)c2cccs2)[nH]n1 [CMP136] | – | – | – | – | – | – | – | – | Inact. (Inact.(<6)) | 5.152 | 5 | 10 µM |
| CC1=C(O)C(=O)C=C2C1=CC=C1[C@@]2(C)CC[C@@]2(C)[C@@H]3C[C@@H](C)C(=O)C[C@]3(C)CC[C@]12C [CMP126] | – | – | – | – | – | – | – | – | Inact. (Inact.(<6)) | 5.156 | 5.004 | 9.91 µM |
| CC(C)c1cc2c(cc1O)[C@@]1(C)CCC[C@@](C)(CO)[C@@H]1CC2 [CMP173] | – | – | – | – | – | – | – | – | Inact. (Inact.(<6)) | 3.808 | 3.656 | 221 µM |
| C=C(N[C@@H](CC(C)C)C(=O)N[C@@H](CC1CCNC1=O)C(=O)Cn1[nH]c(=O)c2c([N+](=O)[O-])cccc2c1=O)[C@@H](NC(=O)[C@H](C)NC(=O)O)[C@@H](C)OCc1ccccc1 (stereo partly drawn) [CMP101] | – | – | – | – | – | – | – | – | Act. (Act.(>=6)) | 6.374 | 6.222 | 0.6 µM |
| O=C1C=CC(=O)c2cn(Cc3ccccc3)cc21 [CMP111] | – | – | – | – | – | – | – | – | Inact. (Inact.(<6)) | 5.307 | 5.1549 | 7 µM |
| O=C(Oc1cncc(Cl)c1)c1cccc2ccccc12 [CMP168] | – | – | – | – | – | – | – | – | Act. (Act.(>=6)) | 7.073 | 6.921 | 0.12 µM |
| CN1C(=O)C(=O)c2cc(S(=O)(=O)N3CCOCC3)ccc21 [CMP149] | – | – | – | – | – | – | – | – | Inact. (Inact.(<6)) | 5.156 | 5.004 | 9.91 µM |
| O=[N+]([O-])c1ccc(S(=O)(=O)c2ccc(Cl)cc2)[n+]([O-])c1 [CMP121] | – | – | – | – | – | – | – | – | Inact. (Inact.(<6)) | 4.976 | 4.824 | 15 µM |
| O=c1cc(-c2ccc(O)cc2)oc2cc(O)cc(O)c12 [CMP152] | – | – | – | – | – | – | – | – | Inact. (Inact.(<6)) | 3.704 | 3.552 | 281 µM |
| O=C1C(=O)N(Cc2ccc(C(=O)N3CCCCC3)s2)c2ccc(I)cc21 [CMP100] | – | – | – | – | – | – | – | – | Inact. (Inact.(<6)) | 4.909 | 4.757 | 17.5 µM |
